Source: patent publication US20250223259A1, “PROTEASE INHIBITORS FOR TREATING OR PREVENTING CORONAVIRUS INFECTION” (Merck Sharp & Dohme LLC, priority 2022, published 2025)

biological target: SARS2 coronavirus 3CL protease (Severe acute respiratory syndrome coronavirus 2 (2019-nCoV) (SARS-CoV-2), UniProt P0DTD1); test: SARS2 Coronavirus 3CL Protease Assay (FRET); format: biochemical; conditions: SARS2 3CLPro FRET assay; 5 nM enzyme, 30 min pre-incubation with compound, 15 uM peptide substrate, 4 h room temperature
Experimental: The enzymatic activity of SARS2 coronavirus 3CL protease was determined in a FRET (fluorescence resonance energy transfer)-based assay measuring the cleavage of a peptide substrate by recombinantly expressed and purified enzyme. Cleavage of the peptide SEQ ID NO:1 (CPC Scientific) by SARS2 3CL protease was measured in reaction buffer (50 mM Hepes pH 7.5, 0.01% Triton X-100, 0.01% BSA, 2 mM DTT). SARS2 3CL protease (5 nM final concentration) was pre-incubated with compound for 30 minutes before reaction initiation with peptide substrate (15 uM final concentration). Room temperature reactions (4 h) were quenched by addition of a high dose of inhibitor and read on an appropriate plate reader (excitation wavelength=495 nm, emission wavelength=520 nm). Data were analyzed by a standard 4 parameter fit to determine IC50 values.

Question: With `COC(=O)N[C@H](C(=O)N1C[C@@H]2CC(C)(C)[C@@H]2[C@H]1C(=O)N[C@@H](CCC(C)(F)F)C(=O)C(=O)NC1CC1)C(C)(C)C` [Example 25, Methyl ((S)-1-((1R,2S,5R)-2-(((S)-1-(cyclopropylamino)-6,6-difluoro-1,2-dioxoheptan-3-yl)carbamoyl)-7,7-dimethyl-3-azabicyclo[3.2.0]heptan-3-yl)-3,3-dimethyl-1-oxobutan-2-yl)carbamate] as the molecule, how does the IC50 read?
Answer: 8.7 nM

Question: For `COC(=O)N[C@H](C(=O)N1C[C@@H]2CCC[C@@H]2[C@H]1C(=O)N[C@@H](CCC(C)(F)F)C(=O)C(=O)NC1CC1)C(C)(C)C` [Example 31, Methyl ((S)-1-((1S,3aR,6aS)-1-(((S)-1-(cyclopropylamino)-6,6-difluoro-1,2-dioxoheptan-3-yl)carbamoyl)hexahydrocyclo-penta[c]pyrrol-2(1H)-yl)-3,3-dimethyl-1-oxobutan-2-yl)carbamate], which IC50 is on record?
Answer: 10 nM

Question: `COC(=O)N[C@H](C(=O)N1CC(C)(C)CCC1C(=O)N[C@@H](CCC(C)(F)F)C(=O)C(=O)NC1CC1)C(C)(C)C` (single isomer, unassigned) [Example 52, Methyl ((S)-1-(R or S)-2-(((S)-1-(cyclopropylamino)-6,6-difluoro-1,2-dioxoheptan-3-yl)carbamoyl)-5,5-dimethylpiperidin-1-yl)-3,3-dimethyl-1-oxobutan-2-yl)carbamate] was tested. Which IC50 did it give?
Answer: 144 nM

Question: With `COC(=O)N[C@H](C(=O)N1CC2(CCC2)CC1C(=O)N[C@@H](CCC(C)(F)F)C(=O)C(=O)NC1CC1)C(C)(C)C` (single isomer, unassigned) [Example 47, Methyl ((S)-1-(R or S)-7-(((S)-1-(cyclopropylamino)-6,6-difluoro-1,2-dioxoheptan-3-yl)carbamoyl)-6-azaspiro[3.4]octan-6-yl)-3,3-dimethyl-1-oxobutan-2-yl)carbamate] as the molecule, how does the IC50 read?
Answer: 38 nM

Question: How did the IC50 turn out when `COC(=O)N[C@H](C(=O)N1CCC2CC2[C@H]1C(=O)N[C@@H](CCC(C)(F)F)C(=O)C(=O)NC1CC1)C(C)(C)C` (single isomer, unassigned) [Example 83, methyl ((S)-1-((1R,2S,6R or 1R,2S,6S)-2-(((S)-1-(cyclopropylamino)-6,6-difluoro-1,2-dioxoheptan-3-yl)carbamoyl)-3-azabicyclo[4.1.0]heptan-3-yl)-3,3-dimethyl-1-oxobutan-2-yl)carbamate] was run?
Answer: 83 nM

Question: Which IC50 does the source give for `COC(=O)N[C@H](C(=O)N1CCCCC1C(=O)N[C@@H](CCC(C)(F)F)C(=O)C(=O)NC1CC1)C(C)(C)C` (single isomer, unassigned) [Example 55, Methyl ((S)-1-((S or R)-2-(((S)-1-(cyclopropylamino)-6,6-difluoro-1,2-dioxoheptan-3-yl)carbamoyl)piperidin-1-yl)-3,3-dimethyl-1-oxobutan-2-yl)carbamate: methyl ((S)-1-((R or S)-2-(((S)-1-(cyclopropylamino)-6,6-difluoro-1,2-dioxoheptan-3-yl)carbamoyl)piperidin-1-yl)-3,3-dimethyl-1-oxobutan-2-yl)carbamate] here?
Answer: 239 nM

Question: How did the IC50 turn out when `COC(=O)N[C@H](C(=O)N1CC[C@@H](C)C[C@H]1C(=O)N[C@@H](CCC(C)(F)F)C(=O)C(=O)NC1CC1)C(C)(C)C` [Example 96, methyl ((S)-1-((2S,4R)-2-(((S)-1-(cyclopropylamino)-6,6-difluoro-1,2-dioxoheptan-3-yl)carbamoyl)-4-methylpiperidin-1-yl)-3,3-dimethyl-1-oxobutan-2-yl)carbamate] was run?
Answer: 15 nM

Question: With `COC(=O)N[C@H](C(=O)N1CC(C)(C)C[C@H]1C(=O)N[C@@H](CCC(C)(F)F)C(=O)C(=O)NC1CC1)C(C)(C)C` [Example 76, Methyl ((S)-1-((S)-2-(((S)-1-(cyclopropylamino)-6,6-difluoro-1,2-dioxoheptan-3-yl)carbamoyl)-4,4-dimethylpyrrolidin-1-yl)-3,3-dimethyl-1-oxobutan-2-yl)carbamate] as the molecule, how does the IC50 read?
Answer: 87 nM

Question: With `COC(=O)N[C@H](C(=O)N1CCC2(CC2)C[C@H]1C(=O)N[C@@H](CCC(C)(F)F)C(=O)C(=O)NC1CC1)C(C)(C)C` [Example 29, Methyl ((S)-1-((S)-5-(((S)-1-(cyclopropylamino)-6,6-difluoro-1,2-dioxoheptan-3-yl)carbamoyl)-6-azaspiro[2.5]octan-6-yl)-3,3-dimethyl-1-oxobutan-2-yl)carbamate] as the molecule, how does the IC50 read?
Answer: 7.7 nM

Question: Which IC50 does the source give for `COC(=O)N[C@H](C(=O)N1CC2(CCOCC2)CC1C(=O)N[C@@H](CCC(C)(F)F)C(=O)C(=O)NC1CC1)C(C)(C)C` (single isomer, unassigned) [Example 28, Methyl ((S)-1-((R or S)-(3-(((S)-1-(cyclopropylamino)-6,6-difluoro-1,2-dioxoheptan-3-yl)carbamoyl)-8-oxa-2-azaspiro[4.5]decan-2-yl)-3,3-dimethyl-1-oxobutan-2-yl)carbamate] here?
Answer: 297 nM

Question: How did the IC50 turn out when `CCNC(=O)C(=O)[C@H](CCC(C)(F)F)NC(=O)[C@@H]1[C@H]2CCC[C@H]2CN1C(=O)[C@@H](NC(=O)OC)C(C)(C)C` [Example 101, methyl ((S)-1-((1S,3aR,6aS)-1-(((S)-1-(ethylamino)-6,6-difluoro-1,2-dioxoheptan-3-yl)carbamoyl)hexahydrocyclopenta[c]pyrrol-2(1H)-yl)-3,3-dimethyl-1-oxobutan-2-yl)carbamate] was run?
Answer: 22 nM

Question: For `COC(=O)N[C@H](C(=O)N1C[C@H](OC(F)F)C[C@H]1C(=O)N[C@@H](CCC(C)(F)F)C(=O)C(=O)NC1CC1)C(C)(C)C` [Example 113, methyl ((S)-1-((2S,4R)-2-(((S)-1-(cyclopropylamino)-6,6-difluoro-1,2-dioxoheptan-3-yl)carbamoyl)-4-(difluoromethoxy)pyrrolidin-1-yl)-3,3-dimethyl-1-oxobutan-2-yl)carbamate], which IC50 is on record?
Answer: 46 nM

Question: With `CC(F)(F)CC[C@H](NC(=O)[C@@H]1CC2(CCCCC2)CN1C(=O)[C@@H](NC(=O)OC1CCCC1)C(C)(C)C)C(=O)C(=O)NC1CC1` [Example 5, Cyclopentyl ((S)-1-((S)-3-(((S)-1-(cyclopropylamino)-6,6-difluoro-1,2-dioxoheptan-3-yl)carbamoyl)-2-azaspiro[4.5]decan-2-yl)-3,3-dimethyl-1-oxobutan-2-yl)carbamate] as the molecule, how does the IC50 read?
Answer: 81 nM

Question: Which IC50 does the source give for `COC(=O)N[C@H](C(=O)N1CC[C@@H](C(F)(F)F)C[C@H]1C(=O)N[C@@H](CCC(C)(F)F)C(=O)C(=O)NC1CC1)C(C)(C)C` [Example 61, Methyl ((S)-1-((2S,4R)-2-(((S)-1-(cyclopropylamino)-6,6-difluoro-1,2-dioxoheptan-3-yl)carbamoyl)-4-(trifluoromethyl)piperidin-1-yl)-3,3-dimethyl-1-oxobutan-2-yl)carbamate] here?
Answer: 16 nM

Question: How did the IC50 turn out when `CNC(=O)C(=O)[C@H](CCC(C)(F)F)NC(=O)[C@@H]1[C@H]2CCC[C@H]2CN1C(=O)[C@@H](NC(=O)OCC(F)F)C(C)(C)C` [Example 121, 2,2-difluoroethyl ((S)-1-((1S,3aR,6aS)-1-(((S)-6,6-difluoro-1-(methylamino)-1,2-dioxoheptan-3-yl)carbamoyl)hexahydrocyclopenta[c]pyrrol-2(1H)-yl)-3,3-dimethyl-1-oxobutan-2-yl)carbamate] was run?
Answer: 15 nM

Question: For `COC(=O)N[C@H](C(=O)N1CC2(C[C@H]1C(=O)N[C@@H](CCC(C)(F)F)C(=O)C(=O)NC1CC1)CC2(F)F)C(C)(C)C` (single isomer, unassigned) [Example 32, Methyl ((S)-1-((3(R or S),6S)-6-(((S)-1-(cyclopropylamino)-6,6-difluoro-1,2-dioxoheptan-3-yl)carbamoyl)-1,1-difluoro-5-azaspiro[2.4]heptan-5-yl)-3,3-dimethyl-1-oxobutan-2-yl)carbamate], which IC50 is on record?
Answer: 15 nM
